The values that follow come from article PMC5218480 (PLoS ONE, 2017).

The assay has as its system MV-4-11 cells. Nature of the assay: Gene expression microarray analysis (Affymetrix PrimeView) and GSEA. The format is cell-based, human. Also on record: RFU PODN (11730768_x_at) / Fold change /veh PODN (11730768_x_at) / RFU LINC00158 (11744669_a_at) / Fold change /veh LINC00158 (11744669_a_at) / RFU DUSP10 (11751237_a_at) / Fold change /veh DUSP10 (11751237_a_at) / RFU ID3 (11757404_x_at) / Fold change /veh ID3 (11757404_x_at) / RFU PLEKHG5 (11737974_s_at) / Fold change /veh PLEKHG5 (11737974_s_at) / RFU LRRC4B (11730491_at) / Fold change /veh LRRC4B (11730491_at) / RFU GIMAP4 (11747438_a_at) / Fold change /veh GIMAP4 (11747438_a_at) / RFU KRT8 (11758183_x_at) / Fold change /veh KRT8 (11758183_x_at) / RFU CNN1 (11734310_a_at) / Fold change /veh CNN1 (11734310_a_at) / RFU VPS37D (11726825_at) / Fold change /veh VPS37D (11726825_at) / RFU C10orf10 (11716522_x_at) / Fold change /veh C10orf10 (11716522_x_at) / RFU KIR2DL2 /// KIR2DL4 /// KIR2DL5A /// KIR2DL5B /// KIR2DS1 /// KIR2DS2 /// KIR2DS3 /// KIR2DS4 /// KIR3DL3 /// KIR3DL3 /// KIR3DS1 (11738374_at) / Fold change /veh KIR2DL2 /// KIR2DL4 /// KIR2DL5A /// KIR2DL5B /// KIR2DS1 /// KIR2DS2 /// KIR2DS3 /// KIR2DS4 /// KIR3DL3 /// KIR3DL3 /// KIR3DS1 (11738374_at) / RFU C1QL1 (11718748_at) / Fold change /veh C1QL1 (11718748_at) / RFU TMPRSS4 (11747572_a_at) / Fold change /veh TMPRSS4 (11747572_a_at) / RFU HAMP (11756126_x_at) / Fold change /veh HAMP (11756126_x_at) / RFU RNFT2 (11725882_a_at) / Fold change /veh RNFT2 (11725882_a_at) / RFU NR4A2 (11747474_a_at) / Fold change /veh NR4A2 (11747474_a_at) / RFU ABCC12 (11746883_a_at) / Fold change /veh ABCC12 (11746883_a_at) / RFU TMEM136 (11760407_x_at) / Fold change /veh TMEM136 (11760407_x_at) / RFU CLDN22 /// WWC2 (11732394_at) / Fold change /veh CLDN22 /// WWC2 (11732394_at) / RFU HLA-DPB1 (11760878_x_at) / Fold change /veh HLA-DPB1 (11760878_x_at) / RFU SPINT1 (11716480_a_at) / Fold change /veh SPINT1 (11716480_a_at) / RFU GAP43 (11754022_s_at) / Fold change /veh GAP43 (11754022_s_at) / RFU A4GNT (11735810_at) / Fold change /veh A4GNT (11735810_at) / RFU PRB3 (11715151_x_at) / Fold change /veh PRB3 (11715151_x_at) / RFU TUBB4B (11761932_at) / Fold change /veh TUBB4B (11761932_at) / RFU CAPN14 (11732068_a_at) / Fold change /veh CAPN14 (11732068_a_at) / RFU TMCC2 (11721928_a_at) / Fold change /veh TMCC2 (11721928_a_at) / RFU IRGQ (11745062_a_at) / Fold change /veh IRGQ (11745062_a_at) / RFU FAM174B (11720279_a_at) / Fold change /veh FAM174B (11720279_a_at) / RFU TMPRSS4 (11748680_a_at) / Fold change /veh TMPRSS4 (11748680_a_at) / RFU FAM212B (11763350_a_at) / Fold change /veh FAM212B (11763350_a_at) / RFU PLEKHG5 (11743358_a_at) / Fold change /veh PLEKHG5 (11743358_a_at) / RFU ZSCAN30 (11745921_a_at) / Fold change /veh ZSCAN30 (11745921_a_at) / RFU CMKLR1 (11741424_a_at) / Fold change /veh CMKLR1 (11741424_a_at) / RFU LOC101060620 /// MAPK8IP1 (11723275_at) / Fold change /veh LOC101060620 /// MAPK8IP1 (11723275_at) / RFU SPTSSB (11747773_x_at) / Fold change /veh SPTSSB (11747773_x_at) / RFU PRSS12 (11739890_at) / Fold change /veh PRSS12 (11739890_at) / RFU BIN1 (11741810_x_at) / Fold change /veh BIN1 (11741810_x_at) / RFU WNT11 (11732464_a_at) / Fold change /veh WNT11 (11732464_a_at) / RFU C10orf10 (11716521_a_at) / Fold change /veh C10orf10 (11716521_a_at) / RFU C5orf56 (11738089_at) / Fold change /veh C5orf56 (11738089_at) / RFU CYB561 (11721691_x_at) / Fold change /veh CYB561 (11721691_x_at) / RFU ANKRD19P (11752326_a_at) / Fold change /veh ANKRD19P (11752326_a_at) / RFU OR2T12 /// OR2T33 /// OR2T8 (11738714_s_at) / Fold change /veh OR2T12 /// OR2T33 /// OR2T8 (11738714_s_at) / RFU VCAN (11748164_a_at) / Fold change /veh VCAN (11748164_a_at) / RFU JSRP1 (11732532_at) / Fold change /veh JSRP1 (11732532_at) / RFU KRTAP10-11 (11738290_x_at) / Fold change /veh KRTAP10-11 (11738290_x_at) / RFU MYO3A (11730013_a_at) / Fold change /veh MYO3A (11730013_a_at) / RFU EBF3 (11725865_a_at) / Fold change /veh EBF3 (11725865_a_at) / RFU CAMK2N1 (11719241_x_at) / Fold change /veh CAMK2N1 (11719241_x_at) / RFU C5orf56 (11738088_a_at) / Fold change /veh C5orf56 (11738088_a_at) / RFU OLFML3 (11715873_a_at) / Fold change /veh OLFML3 (11715873_a_at) / RFU LOC100653217 /// NTM (11731650_a_at) / Fold change /veh LOC100653217 /// NTM (11731650_a_at) / RFU MAPK11 (11762145_a_at) / Fold change /veh MAPK11 (11762145_a_at) / RFU FIZ1 (11724087_x_at) / Fold change /veh FIZ1 (11724087_x_at) / RFU OASL (11726364_x_at) / Fold change /veh OASL (11726364_x_at) / RFU SOX15 (11748057_x_at) / Fold change /veh SOX15 (11748057_x_at) / RFU CD79A (11719716_a_at) / Fold change /veh CD79A (11719716_a_at) / RFU HIST1H1D (11736915_at) / Fold change /veh HIST1H1D (11736915_at) / RFU CASKIN2 (11723855_a_at) / Fold change /veh CASKIN2 (11723855_a_at) / RFU LOC730098 (11760151_x_at) / Fold change /veh LOC730098 (11760151_x_at) / RFU OR4N2 (11742367_at) / Fold change /veh OR4N2 (11742367_at) / RFU PRRT2 (11749266_a_at) / Fold change /veh PRRT2 (11749266_a_at) / RFU SNX32 (11753110_a_at) / Fold change /veh SNX32 (11753110_a_at) / RFU CDHR5 (11726645_a_at) / Fold change /veh CDHR5 (11726645_a_at) / RFU RCAN1 (11760418_a_at) / Fold change /veh RCAN1 (11760418_a_at) / RFU FAM167A (11723789_a_at) / Fold change /veh FAM167A (11723789_a_at) / RFU FAM26E (11764081_at) / Fold change /veh FAM26E (11764081_at) / RFU ISYNA1 (11749810_s_at) / Fold change /veh ISYNA1 (11749810_s_at) / RFU ACY1 (11761880_at) / Fold change /veh ACY1 (11761880_at) / RFU 11764098_at / Fold change /veh 11764098_at / RFU SAMD14 (11745864_x_at) / Fold change /veh SAMD14 (11745864_x_at) / RFU NPB (11741838_a_at) / Fold change /veh NPB (11741838_a_at) / RFU TMPRSS6 (11731388_a_at) / Fold change /veh TMPRSS6 (11731388_a_at) / RFU KRTAP10-2 (11738614_at) / Fold change /veh KRTAP10-2 (11738614_at) / RFU ARHGAP8 /// PRR5-ARHGAP8 (11727945_x_at) / Fold change /veh ARHGAP8 /// PRR5-ARHGAP8 (11727945_x_at) / RFU KRTAP5-7 /// NADSYN1 (11734609_at) / Fold change /veh KRTAP5-7 /// NADSYN1 (11734609_at) / RFU RASL12 (11751679_a_at) / Fold change /veh RASL12 (11751679_a_at) / RFU CDKN2B (11736163_a_at) / Fold change /veh CDKN2B (11736163_a_at) / RFU PRF1 (11729649_at) / Fold change /veh PRF1 (11729649_at) / RFU, ZNF638 /// ZNF638-IT1 / Fold change vs veh, ZNF638 /// ZNF638-IT1 / RFU, PANK3 / Fold change vs veh, PANK3 / RFU, SH3YL1 / Fold change vs veh, SH3YL1 / RFU, ZEB2 / Fold change vs veh, ZEB2 / RFU, NRIP1 / Fold change vs veh, NRIP1 / RFU, PTTG1IP / Fold change vs veh, PTTG1IP / RFU, CAPN2 / Fold change vs veh, CAPN2 / RFU, MED14 / Fold change vs veh, MED14 / RFU, SNORA58 / Fold change vs veh, SNORA58 / RFU, C1orf63 / Fold change vs veh, C1orf63 / RFU, LRRFIP1 / Fold change vs veh, LRRFIP1 / RFU, NDUFAF7 / Fold change vs veh, NDUFAF7 / RFU, SLC12A2 / Fold change vs veh, SLC12A2 / RFU, IBTK / Fold change vs veh, IBTK / RFU, ESF1 / Fold change vs veh, ESF1 / Fold change vs veh, TMEM50B / RFU, TAOK1 / Fold change vs veh, TAOK1 / RFU, ACBD3 / Fold change vs veh, ACBD3 / RFU, TMA16 / Fold change vs veh, TMA16 / RFU, RWDD3 / Fold change vs veh, RWDD3 / RFU, BCAT1 / Fold change vs veh, BCAT1 / RFU, EDEM3 / Fold change vs veh, EDEM3 / RFU, TMEM33 / Fold change vs veh, TMEM33 / RFU, WDR75 / Fold change vs veh, WDR75 / RFU, AHCTF1 / Fold change vs veh, AHCTF1 / RFU, TFRC / Fold change vs veh, TFRC / RFU, ZDHHC17 / Fold change vs veh, ZDHHC17 / RFU, NOM1 / Fold change vs veh, NOM1 / RFU, ARL8B / Fold change vs veh, ARL8B / RFU, ZBTB11 / Fold change vs veh, ZBTB11 / RFU, TAMM41 / Fold change vs veh, TAMM41 / RFU, KIAA1704 /// LOC100996395 / Fold change vs veh, KIAA1704 /// LOC100996395 / RFU, ING1 / Fold change vs veh, ING1 / RFU, TRMT61B / Fold change vs veh, TRMT61B / RFU, FUBP3 / Fold change vs veh, FUBP3 / RFU, TP53 / Fold change vs veh, TP53 / RFU, TNKS2 / Fold change vs veh, TNKS2 / RFU, ZFP14 / Fold change vs veh, ZFP14 / RFU, ACTR2 / Fold change vs veh, ACTR2 / RFU, PPP3R1 / Fold change vs veh, PPP3R1 / RFU, PIK3R1 / Fold change vs veh, PIK3R1 / RFU, HNRNPA1 / Fold change vs veh, HNRNPA1 / RFU, RNF170 / Fold change vs veh, RNF170 / RFU, ZNF28 / Fold change vs veh, ZNF28 / RFU, RNGTT / Fold change vs veh, RNGTT / RFU, OGT / Fold change vs veh, OGT / RFU, BRD1 / Fold change vs veh, BRD1 / RFU, MARS / Fold change vs veh, MARS / RFU, ZNF655 / Fold change vs veh, ZNF655 / RFU, FAHD1 / Fold change vs veh, FAHD1 / RFU, BDP1 / Fold change vs veh, BDP1 / RFU, LRRCC1 / Fold change vs veh, LRRCC1 / RFU, ARID1A / Fold change vs veh, ARID1A / RFU, ZNF146 / Fold change vs veh, ZNF146 / RFU, ZNF330 / Fold change vs veh, ZNF330 / RFU, GPN3 / Fold change vs veh, GPN3 / RFU, C9orf123 / Fold change vs veh, C9orf123 / RFU, N4BP2L2 / Fold change vs veh, N4BP2L2 / RFU, ARFIP1 / Fold change vs veh, ARFIP1 / RFU, FAM179B / Fold change vs veh, FAM179B / RFU, BCL10 / Fold change vs veh, BCL10 / RFU, UHRF1BP1L / Fold change vs veh, UHRF1BP1L / RFU, BET1 / Fold change vs veh, BET1 / RFU, CNOT2 / Fold change vs veh, CNOT2 / RFU, ZNF268 / Fold change vs veh, ZNF268 / Fold change vs veh, ZNF507 / RFU, DGCR2 / Fold change vs veh, DGCR2 / RFU, WDSUB1 / Fold change vs veh, WDSUB1 / Fold change vs veh, HSP90B1 /// MIR3652 / RFU, ADSS / Fold change vs veh, ADSS / RFU, GK / Fold change vs veh, GK / RFU, ZNF148 / Fold change vs veh, ZNF148 / RFU, TAF9 / Fold change vs veh, TAF9 / RFU, SLC1A5 / Fold change vs veh, SLC1A5 / RFU, SLMO2 / Fold change vs veh, SLMO2 / RFU, ABCC4 / Fold change vs veh, ABCC4 / RFU, LOC101060439 /// RAP1B / Fold change vs veh, LOC101060439 /// RAP1B / RFU, RFX7 / Fold change vs veh, RFX7 / RFU, GTPBP10 / Fold change vs veh, GTPBP10 / RFU, CNEP1R1 / Fold change vs veh, CNEP1R1 / RFU, BIVM-ERCC5 /// ERCC5 / Fold change vs veh, BIVM-ERCC5 /// ERCC5 / RFU, ILF3 / Fold change vs veh, ILF3 / RFU 11762660_at / Fold change /veh 11762660_at / RFU VCAN (11757783_s_at) / Fold change /veh VCAN (11757783_s_at) / RFU DDX43 (11728927_at) / Fold change /veh DDX43 (11728927_at) / RFU KRT8 (11758188_x_at) / Fold change /veh KRT8 (11758188_x_at) / RFU NKD1 (11759106_at) / Fold change /veh NKD1 (11759106_at) / RFU SRD5A1 (11742802_a_at) / Fold change /veh SRD5A1 (11742802_a_at) / RFU TPSAB1 /// TPSB2 (11721975_s_at) / Fold change /veh TPSAB1 /// TPSB2 (11721975_s_at) / RFU GSTM3 (11746129_a_at) / Fold change /veh GSTM3 (11746129_a_at) / RFU IL23R (11737362_x_at) / Fold change /veh IL23R (11737362_x_at) / RFU TMEM51 (11727254_a_at) / Fold change /veh TMEM51 (11727254_a_at) / RFU PIWIL2 (11732686_x_at) / Fold change /veh PIWIL2 (11732686_x_at) / RFU ORM1 (11744905_x_at) / Fold change /veh ORM1 (11744905_x_at) / RFU CCDC152 (11743942_at) / Fold change /veh CCDC152 (11743942_at) / RFU ECM1 (11717891_a_at) / Fold change /veh ECM1 (11717891_a_at) / RFU IL23R (11748794_a_at) / Fold change /veh IL23R (11748794_a_at) / RFU TNFAIP8L3 (11732012_x_at) / Fold change /veh TNFAIP8L3 (11732012_x_at) / RFU MBOAT4 (11741988_at) / Fold change /veh MBOAT4 (11741988_at) / RFU 11764193_at / Fold change /veh 11764193_at / RFU TMEM53 (11763286_at) / Fold change /veh TMEM53 (11763286_at) / RFU MAGEB2 (11727129_at) / Fold change /veh MAGEB2 (11727129_at) / RFU TMEM200A (11744735_a_at) / Fold change /veh TMEM200A (11744735_a_at) / RFU CCDC152 (11751479_a_at) / Fold change /veh CCDC152 (11751479_a_at) / RFU FAM211A (11726209_a_at) / Fold change /veh FAM211A (11726209_a_at) / RFU RGS16 (11746705_a_at) / Fold change /veh RGS16 (11746705_a_at) / RFU VCAN (11755009_s_at) / Fold change /veh VCAN (11755009_s_at) / RFU RHOB (11743442_s_at) / Fold change /veh RHOB (11743442_s_at) / RFU RGS16 (11720943_a_at) / Fold change /veh RGS16 (11720943_a_at) / RFU RGS16 (11720944_at) / Fold change /veh RGS16 (11720944_at) / RFU, VPS4B / Fold change vs veh, VPS4B / RFU, CREB1 / Fold change vs veh, CREB1 / RFU, DNAJC13 / Fold change vs veh, DNAJC13 / RFU, GNAQ / Fold change vs veh, GNAQ / RFU, CDK5R1 / Fold change vs veh, CDK5R1 / RFU, ZRANB3 / Fold change vs veh, ZRANB3 / RFU, CUL4A / Fold change vs veh, CUL4A / RFU, CCNY / Fold change vs veh, CCNY / RFU, UFL1 / Fold change vs veh, UFL1 / RFU, COG3 / Fold change vs veh, COG3 / RFU, DIAPH2 / Fold change vs veh, DIAPH2 / RFU, SKA2 / Fold change vs veh, SKA2 / RFU, AFF3 / Fold change vs veh, AFF3 / RFU, LMF1 / Fold change vs veh, LMF1 / RFU, IPO11 / Fold change vs veh, IPO11 / RFU, DFFB / Fold change vs veh, DFFB / RFU, FOXP1 / Fold change vs veh, FOXP1 / RFU, CARD8 / Fold change vs veh, CARD8 / RFU, STRN3 / Fold change vs veh, STRN3 / RFU, ADK / Fold change vs veh, ADK / RFU, RASSF2 / Fold change vs veh, RASSF2 / RFU, WIPF1 / Fold change vs veh, WIPF1 / RFU, LARP1B / Fold change vs veh, LARP1B / RFU, RASA1 / Fold change vs veh, RASA1 / RFU, RB1 / Fold change vs veh, RB1 / RFU, PPFIA1 / Fold change vs veh, PPFIA1 / RFU, MAT2A / Fold change vs veh, MAT2A / RFU, CCT5 / Fold change vs veh, CCT5 / RFU, WDR92 / Fold change vs veh, WDR92 / RFU, CUX1 / Fold change vs veh, CUX1 / RFU, TTC7A / Fold change vs veh, TTC7A / RFU, TMEM135 / Fold change vs veh, TMEM135 / RFU, DEPTOR / Fold change vs veh, DEPTOR / RFU, CPM / Fold change vs veh, CPM / RFU, DNAJB6 / Fold change vs veh, DNAJB6 / RFU, CACNA2D3 / Fold change vs veh, CACNA2D3 / RFU, DTX4 / Fold change vs veh, DTX4 / RFU, TFCP2 / Fold change vs veh, TFCP2 / RFU, GMCL1 /// GMCL1P1 / Fold change vs veh, GMCL1 /// GMCL1P1 / RFU, AEBP2 / Fold change vs veh, AEBP2 / RFU, SNHG1 /// SNORD22 /// SNORD25 /// SNORD26 /// SNORD27 /// SNORD28 /// SNORD29 /// SNORD31 / Fold change vs veh, SNHG1 /// SNORD22 /// SNORD25 /// SNORD26 /// SNORD27 /// SNORD28 /// SNORD29 /// SNORD31 / Fold change (Aza/veh), C12orf56 (ProbeSet 11735607_a_at) / Fold change (ACY-1035/veh), C12orf56 (ProbeSet 11735607_a_at) / Fold change (Aza/veh), FGFR1OP (ProbeSet 11751329_s_at) / Fold change (ACY-1035/veh), FGFR1OP (ProbeSet 11751329_s_at) / Fold change (Aza/veh), VPS36 (ProbeSet 11739960_a_at) / Fold change (ACY-1035/veh), VPS36 (ProbeSet 11739960_a_at) / RFU SYPL1 (11715823_x_at) / Fold change /veh SYPL1 (11715823_x_at) / RFU IGFBP7 (11715501_s_at) / Fold change /veh IGFBP7 (11715501_s_at) / RFU REEP3 (11722064_at) / Fold change /veh REEP3 (11722064_at) / RFU IGLL1 (11728026_x_at) / Fold change /veh IGLL1 (11728026_x_at): dose or concentration left out as unconfirmed. As to conditions: ProbeSet 11743362_s_at; LIST B.

For `Nc1ncn([C@@H]2O[C@H](CO)[C@@H](O)[C@H]2O)c(=O)n1` [azacitidine], the “Fold change vs veh, ADSS” value is listed as 0.89.
